Measurements as given in the NIST ThermoML archive (doi:10.1021/je400679k).

Assay: xn = mol fraction of the nth substance listed
Conditions: 101 kPa, Liquid, Vibrating tube method

CNCCCN [N-methyl-1,3-diaminopropane] + CCN(CC)CCO
mass density [kg/m3]
Conditions | x1 = 0.0999 | x1 = 0.2 | x1 = 0.3001 | x1 = 0.3997 | x1 = 0.5 | x1 = 0.5998 | x1 = 0.7001 | x1 = 0.8 | x1 = 0.8996 | x1 = 1
283.15 K | 892.458 | 890.44 | 888.023 | 885.377 | 882.338 | 878.902 | 874.969 | 870.601 | 866.062 | 860.459
293.15 K | 883.574 | 881.665 | 879.317 | 876.712 | 873.685 | 870.252 | 866.283 | 861.885 | 857.283 | 851.605
303.15 K | 874.574 | 872.785 | 870.463 | 867.945 | 864.94 | 861.519 | 857.522 | 853.099 | 848.439 | 842.69
313.15 K | 865.456 | 863.792 | 861.601 | 859.082 | 856.105 | 852.691 | 848.689 | 844.237 | 839.53 | 833.715
323.15 K | 856.219 | 854.692 | 852.583 | 850.12 | 847.171 | 843.77 | 839.765 | 835.289 | 830.547 | 824.673
333.15 K | 846.874 | 845.474 | 843.452 | 841.042 | 838.132 | 834.751 | 830.75 | 826.265 | 821.487 | 815.559
343.15 K | 837.416 | 836.147 | 834.206 | 831.853 | 828.978 | 825.629 | 821.629 | 817.142 | 812.342 | 806.37
353.15 K | 827.843 | 826.695 | 824.829 | 822.533 | 819.712 | 816.396 | 812.413 | 807.931 | 803.118 | 797.093
363.15 K | 818.122 | 817.116 | 815.306 | 813.074 | 810.325 | 807.063 | 803.095 | 798.611 | 793.772 | 787.723

CNCCCN [N-methyl-1,3-diaminopropane] + CN(C)CCO
mass density [kg/m3]
Conditions | x1 = 0.0998 | x1 = 0.2 | x1 = 0.3001 | x1 = 0.4 | x1 = 0.4997 | x1 = 0.5993 | x1 = 0.6999 | x1 = 0.799 | x1 = 0.9 | x1 = 1
283.15 K | 893.869 | 892.03 | 889.578 | 886.723 | 883.31 | 879.367 | 875.276 | 871.091 | 866.659 | 860.459
293.15 K | 885.469 | 883.599 | 881.113 | 878.225 | 874.783 | 870.8 | 866.663 | 862.415 | 857.904 | 851.605
303.15 K | 876.968 | 875.071 | 872.551 | 869.634 | 866.166 | 862.148 | 857.97 | 853.666 | 849.087 | 842.69
313.15 K | 868.337 | 866.42 | 863.872 | 860.932 | 857.442 | 853.398 | 849.183 | 844.832 | 840.193 | 833.715
323.15 K | 859.574 | 857.639 | 855.069 | 852.112 | 848.606 | 844.543 | 840.3 | 835.912 | 831.218 | 824.673
333.15 K | 850.654 | 848.712 | 846.131 | 843.164 | 839.647 | 835.571 | 831.314 | 826.896 | 822.163 | 815.559
343.15 K | 841.562 | 839.622 | 837.042 | 834.073 | 830.555 | 826.477 | 822.212 | 817.78 | 813.022 | 806.37
353.15 K | 832.286 | 830.357 | 827.791 | 824.83 | 821.322 | 817.252 | 812.995 | 808.563 | 803.789 | 797.093
363.15 K | 822.801 | 820.903 | 818.354 | 815.413 | 811.93 | 807.876 | 803.636 | 799.198 | 794.432 | 787.723
